Measured values: patent US20110183336A1, “Method to Predict Responsiveness of Breast Cancer to Polyamine-Type Chemotherapy” (THE REGENTS OF THE UNIVERSITY OF CALIFORNIA, priority 2007, published 2011)

Legend:
Type in all cases: cell-based
[1] = tested on: human brain cancer cell line U251MG-NCI; assay: Colony formation (plating efficiency) standard protocol
Protocol: (§1) Cell lines and media: Human breast cancer cell line MCF7 was grown in Richter's Improved Modified Eagle's Medium supplemented with 10% fetal bovine serum (FBS) and 2.2 g/L sodium bicarbonate. Human brain cancer cell line U251MG-NCI was grown in Dulbecco's Modified Eagle's Medium supplemented with 10% FBS. Human lung cancer cell line A549 was grown in Ham's F-12K medium (Fisher Scientific, Itasca, Ill.), supplemented with 10% FBS and 2 mM L-glutamine. Human colon cancer cell line HT29 was cultured in McCoy's 5A medium (Gibco, BRL, Gaithersburg, Md.), supplemented with 10% FBS. Human prostate cancer cell line PC3 was grown in Dulbecco's Modified Eagles Medium supplemented with 5% FBS. The A549 and MCF7 cell lines were cultured in 100 units/mL penicillin and 100 μg/mL streptomycin. HT29 and U251MG cell lines were grown in 50 μg/mL gentamycin. PC3 cell lines were maintained in 1% antibiotic-antimycotic solution (Sigma, St. Louis, Mo.). The cell cultures were maintained at 37° C. in 5% CO2/95% humidified air. All cell cultures are available from the American Type Culture Collection, Rockville, Md.
(§2) A standardized protocol was used to evaluate these test cultures:
(§3) Day 1: Ten standard culture flasks for each drug to be tested were plated with 5×10^5 cells of a given type in 5 mL of media and allowed to incubate for 16-24 hours at 37° C.
(§4) Day 2: Fresh stocks of the compounds to be evaluated are prepared. For each drug, two of the ten culture flasks prepared on Day 1 are used as controls. The control flasks are treated with solvent only. Four flasks for each compound are then treated with serially-diluted concentrations of the compound. The remaining flasks are left untouched. The cells are incubated for 4 hours at 37° C.
(§5) After 4 hours the control flasks are counted (2 counts for each flask) and the cells per mL calculated based on the average of the control counts. The cells are then re-plated into six 60 mm dishes for each flask from dilutions based on the cells/mL of the control. (In the various test runs, cell concentrations ranged from approximately 50 to approximately 800 cells per mL.)
(§6) Day 15-20: The cells are monitored for colony formation. When visible, the cells are stained with 0.5% crystal violet (in 95% EtOH) and counted. The plating efficiency for each dish is then calculated. The plating efficiencies of the six dishes for each flask are averaged and the standard deviation is calculated. The fraction of cell survival at each concentration is determined based on the controls.

[2] = tested on: HT-29; assay: MTT assay, percent cell survival; conditions: Homo sapiens, HT-29, 144 h, HT-29, MTT, six days after drug treatment; read-out: ID50(μM) HT-29
Protocol: as §1
(§7) Here, a conventional MTT assay was used to evaluate percent cell survival. Exponentially growing monolayer cells were plated in 96-well plates at a density of 500 cells per well and allowed to grow for 24 hours. Serial dilutions of the drugs were added to the wells. Six days after drug treatment, 25 μl of MTT solution (5 mg/ml) was added to each well and incubated for 4 hours at 37° C. Then 100 μl of lysis buffer (20% sodium dodecyl sulfate, 50% DMF, and 0.8% acetic acid, pH 4.7) was added to each well and incubated for an additional 22 hours. A microplate reader (“EMAX”-brand, Molecular Devices, Sunnyvale, Calif.) set at 570 nm was used to determine the optical density of the cultures. Results are expressed as a ratio of the optical density in drug-treated wells to the optical density in wells treated with vehicle only.
(§8) The ID50 is the drug concentration that killed 50% of the cultured cells.

[3] = tested on: PC-3; assay: MTT assay, percent cell survival; conditions: Homo sapiens, PC-3, 144 h, PC-3, MTT, six days after drug treatment; read-out: ID50(μM) PC-3
Protocol: as §1, §7, §8

[4] = tested on: U251MG NCl; assay: MTT assay, percent cell survival; conditions: Homo sapiens, U-251, 144 h, six days after drug treatment, read-out: ID50(μM) U251MG NCl
Protocol: as §1, §7, §8

[5] = tested on: MCF7; assay: MTT assay, percent cell survival; conditions: Homo sapiens, MCF7, 144 h, six days after drug treatment, read-out: ID50(μM) MCF7
Protocol: as §1, §7, §8

[6] = tested on: Human breast cancer cell line MCF7; assay: Colony formation (plating efficiency) standard protocol; conditions: MCF7, MCF7, 4 hours exposure, colony formation day 15-20, read-out: ED50 (the source's name)
Protocol: as §1, §2, §3, §4, §5, §6

[7] = tested on: A549; assay: MTT assay, percent cell survival; conditions: Homo sapiens, A549, 144 h, six days after drug treatment, read-out: ID50(μM) A549
Protocol: Human brain cancer cell line U251MG-NCI was grown in Dulbecco's Modified Eagle's Medium supplemented with 10% FBS. […] Human prostate cancer cell line PC3 was grown in Dulbecco's Modified Eagles Medium supplemented with 5% FBS. […] The cell cultures were maintained at 37° C. in 5% CO2/95% humidified air.
as §7, §8

EC50 [6] [µM] | Structure (SMILES) | IC50 [2] [µM] | IC50 [4] [µM] | IC50 [5] [µM] | other results
 | CCNCCCNC1CC1NCCCNCC (stereo not drawn) [SL-11027] |  |  |  | inhibition of cell growth ([1]; 10 μM dose): marked inhibition of cell growth
 | CCNCCCNC1CCC1NCCCNCC (stereo not drawn) [SL-11034] |  |  |  | inhibition of cell growth ([1]; 40 μM dose): marked inhibition of cell growth
 | CCNCCCNCC1CC1CNCCCNCC (stereo not drawn) [SL-11037] | 1.6 | 0.1 | > 31.2 | IC50 [3]: 7.4 µM
1.34 | CCNCCCNCC1CC1CNCCCNCC (stereo not drawn) [SL-11038] |  |  |  | 
1.64 | CCNCCCNCC1CCC1CNCCCNCC (stereo not drawn) [SL-11043] | 1.5 | 0.1 | 25.5 | 
 | CCNCCCNCC1CCC1CNCCCNCC (stereo not drawn) [SL-11044] |  |  |  | IC50 [7]: 0.3 µM
